Paper PMC6715447 (Science (New York, N.Y.), 2019)
pIC50: −log10 of the molar value.

Biological target: T1, cysteamine (2-aminoethanethiol) dioxygenase (ADO) (Homo sapiens, UniProt Q96SZ5)
T1 sequence (Q96SZ5 1-270): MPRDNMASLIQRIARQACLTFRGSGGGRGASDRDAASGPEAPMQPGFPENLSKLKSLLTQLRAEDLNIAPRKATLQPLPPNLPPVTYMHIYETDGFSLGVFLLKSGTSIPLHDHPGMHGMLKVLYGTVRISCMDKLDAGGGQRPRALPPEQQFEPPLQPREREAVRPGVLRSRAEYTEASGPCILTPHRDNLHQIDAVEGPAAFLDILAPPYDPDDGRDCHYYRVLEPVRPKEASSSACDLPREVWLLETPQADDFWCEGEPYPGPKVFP
Assay: competition of N-Cys peptide dioxygenation by recombinant ADO
Assay type: biochemical

pIC50 | Compound
1.43 | NCCS [cysteamine]
1.89 | N[C@@H](CS)C(=O)O [cysteine]
